Values joined by “and” are separate entries in the source; they are usually repeats but may differ in a detail not shown here. Equal values may be shown once.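 Cells were grown in 96-well plates and exposed to each compound for 48 hours at five concentrations; endpoints were interpolated linearly between bracketing concentrations, or set to the highest concentration if not reached. GI50 is the concentration that inhibits growth by half. At the TGI there is no net growth.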
Legend:
Experiment in all cases: DTP human tumour cell line panel, 48 h
SR leukemia = system: SR leukemia
SW-620 colon = system: SW-620 colon
MDA-MB-231 breast = system: MDA-MB-231 breast
HCT-116 colon = system: HCT-116 colon
MDA-MB-435 = system: MDA-MB-435
DU-145 prostate = system: DU-145 prostate
CAKI-1 renal = system: CAKI-1 renal
OVCAR-3 ovarian = system: OVCAR-3 ovarian
A549 NSCLC = system: A549 NSCLC
MALME-3M melanoma = system: MALME-3M melanoma

SMILES: C#CCNC(=O)CC[C@]1(C)[C@H]2CC[C@@H]3[C@@H]([C@@](C)(O)CCC=C(C)C)CC[C@@]3(C)[C@]2(C)CC[C@H]1C(=C)C
- GI50 (SR leukemia): 3.05 µM
- TGI (SR leukemia): 19.2 µM
- GI50 (SW-620 colon): 29.4 µM
- TGI (SW-620 colon): > 100 µM
- GI50 (MDA-MB-231 breast): 22.3 µM
- TGI (MDA-MB-231 breast): 67.5 µM
- GI50 (HCT-116 colon): 17.8 µM
- TGI (HCT-116 colon): 35.6 µM
- GI50 (MDA-MB-435): 38.1 µM
- TGI (MDA-MB-435): > 100 µM
- GI50 (DU-145 prostate): 34.8 µM
- TGI (DU-145 prostate): > 100 µM
- GI50 (CAKI-1 renal): 4.25 µM
- TGI (CAKI-1 renal): 17.7 µM
- GI50 (OVCAR-3 ovarian): 31.3 µM
- TGI (OVCAR-3 ovarian): 89.9 µM
- GI50 (A549 NSCLC): 42.7 µM
- TGI (A549 NSCLC): > 100 µM
- GI50 (MALME-3M melanoma): 16.4 µM
- TGI (MALME-3M melanoma): 35 µM

SMILES: C=CCN(/C=C1\C(=O)O[C@H](COC)[C@@]2(C)C1=C(O)C(=O)C1=C2[C@H](OC(C)=O)C[C@]2(C)C(=O)CC[C@@H]12)CC=C
- GI50 (SR leukemia): 0.86 µM and 0.644 µM
- TGI (SR leukemia): 20 µM and 8.02 µM
- GI50 (SW-620 colon): 6.16 µM and 2.09 µM
- TGI (SW-620 colon): 20 µM and > 100 µM
- GI50 (MDA-MB-231 breast): 13.2 µM and 3.32 µM
- TGI (MDA-MB-231 breast): 20 µM and > 100 µM
- GI50 (HCT-116 colon): 3.91 µM and 1.76 µM
- TGI (HCT-116 colon): 20 µM and > 100 µM
- GI50 (MDA-MB-435): 1.29 µM and 3.63 µM
- TGI (MDA-MB-435): 13.5 µM and 46.9 µM
- GI50 (DU-145 prostate): 11.2 µM and 1.27 µM
- TGI (DU-145 prostate): 20 µM and > 100 µM
- GI50 (CAKI-1 renal): 0.188 µM and 0.2 µM
- TGI (CAKI-1 renal): 20 µM and 10.1 µM
- TGI (OVCAR-3 ovarian): 20 µM and 4.16 µM
- GI50 (A549 NSCLC): 0.151 µM and 0.361 µM
- TGI (MALME-3M melanoma): 5.5 µM and 8.3 µM

SMILES: COc1ccc(C2=C(c3cc(OC)c(OC)c(OC)c3)C(=O)CC2)cc1
- GI50 (SR leukemia): 0.0335 µM
- TGI (SR leukemia): > 100 µM
- GI50 (SW-620 colon): 0.082 µM
- TGI (SW-620 colon): > 100 µM
- GI50 (MDA-MB-231 breast): 0.62 µM
- TGI (MDA-MB-231 breast): > 100 µM
- GI50 (HCT-116 colon): 0.156 µM
- TGI (HCT-116 colon): > 100 µM
- GI50 (MDA-MB-435): 0.0291 µM
- TGI (MDA-MB-435): 0.12 µM
- GI50 (DU-145 prostate): 0.294 µM
- GI50 (CAKI-1 renal): 0.76 µM
- TGI (CAKI-1 renal): > 100 µM
- GI50 (OVCAR-3 ovarian): 0.0598 µM
- TGI (OVCAR-3 ovarian): 0.242 µM
- GI50 (A549 NSCLC): 0.193 µM
- TGI (A549 NSCLC): > 100 µM
- GI50 (MALME-3M melanoma): > 100 µM
- TGI (MALME-3M melanoma): > 100 µM

SMILES: C[C@H]1CC[C@@H]2[C@@H](C)[C@H]3[C@H](C[C@H]4[C@@H]5CC=C6C[C@@H](O)CC[C@]6(C)[C@H]5C[C@H](O)[C@]34C)N2C1
- TGI (SR leukemia): > 100 µM
- TGI (SW-620 colon): > 100 µM
- TGI (MDA-MB-231 breast): > 100 µM
- TGI (HCT-116 colon): > 100 µM
- TGI (MDA-MB-435): > 100 µM
- TGI (DU-145 prostate): > 100 µM
- TGI (CAKI-1 renal): > 100 µM
- TGI (OVCAR-3 ovarian): > 100 µM
- TGI (A549 NSCLC): > 100 µM
- TGI (MALME-3M melanoma): > 100 µM

SMILES: COc1ccc(-c2nn(-c3cccc(NC(=O)Nc4cc(C(F)(F)F)cc(C(F)(F)F)c4)c3)cc2-c2ccncc2)cc1Cl
- GI50 (SR leukemia): 1.02 µM
- TGI (SR leukemia): 3.13 µM
- GI50 (SW-620 colon): 1.35 µM
- TGI (SW-620 colon): 6.5 µM
- GI50 (MDA-MB-231 breast): 0.85 µM
- TGI (MDA-MB-231 breast): 2.12 µM
- GI50 (HCT-116 colon): 0.649 µM
- TGI (HCT-116 colon): 2.17 µM
- GI50 (MDA-MB-435): 0.959 µM
- TGI (MDA-MB-435): 3.12 µM
- GI50 (DU-145 prostate): 1.96 µM
- TGI (DU-145 prostate): 9.76 µM
- GI50 (CAKI-1 renal): 1.07 µM
- TGI (CAKI-1 renal): 9.44 µM
- GI50 (OVCAR-3 ovarian): 0.68 µM
- TGI (OVCAR-3 ovarian): 4.56 µM
- GI50 (A549 NSCLC): 1.07 µM
- TGI (A549 NSCLC): 7.6 µM
- GI50 (MALME-3M melanoma): 1.23 µM
- TGI (MALME-3M melanoma): 4.2 µM

SMILES: CCOC(=O)c1c(C)n2c(=O)cc(C)c3c(OC(C)=O)c(OC(C)=O)cc1c32
- GI50 (SR leukemia): 2.78 µM
- TGI (SR leukemia): > 32.2 µM
- GI50 (SW-620 colon): 4.03 µM
- TGI (SW-620 colon): 19.3 µM
- GI50 (MDA-MB-231 breast): 4.34 µM
- TGI (MDA-MB-231 breast): 34.4 µM
- GI50 (HCT-116 colon): 3.56 µM
- TGI (HCT-116 colon): 17 µM
- GI50 (MDA-MB-435): 5.76 µM
- TGI (MDA-MB-435): > 53 µM
- GI50 (DU-145 prostate): 6.33 µM
- TGI (DU-145 prostate): 22.2 µM
- GI50 (CAKI-1 renal): 6.37 µM
- TGI (CAKI-1 renal): > 65.9 µM
- GI50 (OVCAR-3 ovarian): 3.49 µM
- TGI (OVCAR-3 ovarian): > 62.7 µM
- GI50 (A549 NSCLC): 5.86 µM
- TGI (A549 NSCLC): 52.3 µM
- GI50 (MALME-3M melanoma): 9.93 µM
- TGI (MALME-3M melanoma): 35.5 µM

SMILES: Clc1ccc(-c2nn3ncccc3c2-c2ccnc(Nc3ccccc3)n2)cc1
- GI50 (SR leukemia): 7.66 µM
- TGI (SR leukemia): > 25 µM
- GI50 (SW-620 colon): 12 µM
- TGI (SW-620 colon): > 25 µM
- GI50 (MDA-MB-231 breast): 13.4 µM
- TGI (MDA-MB-231 breast): > 25 µM
- GI50 (HCT-116 colon): 7.02 µM
- TGI (HCT-116 colon): > 25 µM
- GI50 (MDA-MB-435): 10.1 µM
- TGI (MDA-MB-435): > 25 µM
- GI50 (DU-145 prostate): 11 µM
- TGI (DU-145 prostate): > 25 µM
- GI50 (CAKI-1 renal): 2.5 µM
- TGI (CAKI-1 renal): > 22.2 µM
- GI50 (OVCAR-3 ovarian): 5.92 µM
- TGI (OVCAR-3 ovarian): > 25 µM
- GI50 (A549 NSCLC): 11.3 µM
- TGI (A549 NSCLC): > 25 µM
- GI50 (MALME-3M melanoma): > 20.6 µM
- TGI (MALME-3M melanoma): > 25 µM

SMILES: CCCCN(CCCC)CCCN=c1nc2c(c(N)n1-c1ccccc1)c(=S)n(-c1ccccc1)c(=S)n2-c1ccccc1
- GI50 (SR leukemia): 0.273 µM
- TGI (SR leukemia): 1.46 µM
- GI50 (SW-620 colon): 0.568 µM
- TGI (SW-620 colon): 2.62 µM
- GI50 (MDA-MB-231 breast): 0.555 µM
- TGI (MDA-MB-231 breast): 1.53 µM
- GI50 (HCT-116 colon): 0.412 µM
- TGI (HCT-116 colon): 1.5 µM
- GI50 (MDA-MB-435): 0.301 µM
- TGI (MDA-MB-435): 0.93 µM
- GI50 (DU-145 prostate): 1.34 µM
- TGI (DU-145 prostate): 2.75 µM
- GI50 (CAKI-1 renal): 0.384 µM
- TGI (CAKI-1 renal): 1.49 µM
- GI50 (OVCAR-3 ovarian): 0.997 µM
- TGI (OVCAR-3 ovarian): 2.3 µM
- GI50 (A549 NSCLC): 1.46 µM
- TGI (A549 NSCLC): 3.48 µM
- GI50 (MALME-3M melanoma): 0.604 µM
- TGI (MALME-3M melanoma): 1.31 µM

SMILES: Cc1nc(/N=C(\N)NC(=O)Nc2ccccc2Cl)sc1C
- GI50 (SR leukemia): 0.173 µM
- TGI (SR leukemia): 35.5 µM
- GI50 (SW-620 colon): 0.329 µM
- TGI (SW-620 colon): > 100 µM
- GI50 (MDA-MB-231 breast): 1.06 µM
- TGI (MDA-MB-231 breast): 50.3 µM
- GI50 (HCT-116 colon): 0.402 µM
- GI50 (MDA-MB-435): 0.0868 µM
- TGI (MDA-MB-435): 0.466 µM
- GI50 (DU-145 prostate): 0.621 µM
- TGI (DU-145 prostate): 5.85 µM
- GI50 (CAKI-1 renal): 0.435 µM
- TGI (CAKI-1 renal): 9.41 µM
- GI50 (OVCAR-3 ovarian): 0.299 µM
- TGI (OVCAR-3 ovarian): 1.28 µM
- GI50 (A549 NSCLC): 0.675 µM
- TGI (A549 NSCLC): > 100 µM
- GI50 (MALME-3M melanoma): 0.643 µM
- TGI (MALME-3M melanoma): 4.79 µM

SMILES: N#Cc1c(NC(=O)CN2CCOCC2)sc2c1CCCC2
- GI50 (SR leukemia): > 25 µM
- TGI (SR leukemia): > 25 µM
- GI50 (SW-620 colon): > 25 µM
- TGI (SW-620 colon): > 25 µM
- GI50 (MDA-MB-231 breast): > 25 µM
- TGI (MDA-MB-231 breast): > 25 µM
- GI50 (HCT-116 colon): > 25 µM
- TGI (HCT-116 colon): > 25 µM
- GI50 (MDA-MB-435): > 25 µM
- TGI (MDA-MB-435): > 25 µM
- GI50 (DU-145 prostate): > 25 µM
- TGI (DU-145 prostate): > 25 µM
- GI50 (CAKI-1 renal): > 25 µM
- TGI (CAKI-1 renal): > 25 µM
- GI50 (OVCAR-3 ovarian): > 25 µM
- TGI (OVCAR-3 ovarian): > 25 µM
- GI50 (A549 NSCLC): > 25 µM
- TGI (A549 NSCLC): > 25 µM
- GI50 (MALME-3M melanoma): > 25 µM
- TGI (MALME-3M melanoma): > 25 µM

From PubChem BioAssay (NCI)
